Earlier results, collected in patent US20250034331A1, “POLYESTER URETHANE BIORESORBABLE ELASTOMERS WITH MICROSTRUCTURES FOR TUNABLE DRUG RELEASE AND TUNABLE DEGRADATION” (SOLESIS, INC., priority 2023, published 2025).

Columns and labels:
[1] = humans

Compound | time of excretion [1] [h] | solubility in PBS
NCCCCCCN [HDA, hexamethylene diamine] | ≤ 10 | –
C[C@@H]1C[C@H]2[C@@H]3CCC4=CC(=O)C=C[C@]4(C)[C@@]3(F)[C@@H](O)C[C@]2(C)[C@@]1(O)C(=O)CO [dexamethasone] | – | about 75 μg/mL
